The source of these data is ChEMBL document CHEMBL3784954, “In vitro and in silico PTP-1B inhibition and in vivo antidiabetic activity of semisynthetic moronic acid derivatives” (Bioorg Med Chem Lett, 2016).

The structures appear in SMILES notation. Activity calls are given as the source filed them. No cut-off for these calls is given here.

In data set [1] the target is T1, Tyrosine-protein phosphatase non-receptor type 1 (Homo sapiens) (UniProt P18031).
T1 sequence (whole entry): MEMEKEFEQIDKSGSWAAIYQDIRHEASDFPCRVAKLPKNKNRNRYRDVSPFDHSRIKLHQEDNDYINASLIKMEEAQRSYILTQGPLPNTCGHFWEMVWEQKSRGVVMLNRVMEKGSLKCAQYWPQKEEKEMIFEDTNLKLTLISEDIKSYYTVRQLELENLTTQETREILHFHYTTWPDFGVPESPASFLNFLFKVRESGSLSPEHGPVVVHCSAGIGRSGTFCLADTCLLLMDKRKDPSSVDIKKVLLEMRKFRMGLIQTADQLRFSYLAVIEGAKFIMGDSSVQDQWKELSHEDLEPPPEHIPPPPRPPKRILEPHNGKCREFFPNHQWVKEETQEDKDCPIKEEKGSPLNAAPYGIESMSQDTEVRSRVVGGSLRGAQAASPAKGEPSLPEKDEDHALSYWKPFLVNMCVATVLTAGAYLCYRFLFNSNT
The data set can be described thus: Inhibition of recombinant human PTP-1B expressed in Escherichia coli TB1 at 50 uM using p-nitrophenyl phosphate as substrate.

For data set [2], the species on record is Homo sapiens. Kind of data set: Selectivity ratio of IC50 for recombinant human LMW-PTP isoform 2 expressed in Escherichia coli TB1 to IC50 for recombinant human PTP-1B expressed in Escherichia coli TB1.
In data set [3] the target is T2, Low molecular weight phosphotyrosine protein phosphatase (Homo sapiens, UniProt P24666).
T2 sequence (P24666 whole entry): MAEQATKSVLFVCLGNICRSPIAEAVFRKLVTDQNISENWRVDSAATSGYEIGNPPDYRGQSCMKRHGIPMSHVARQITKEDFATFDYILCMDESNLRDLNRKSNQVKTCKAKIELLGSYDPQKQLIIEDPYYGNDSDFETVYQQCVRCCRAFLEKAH
Kind of data set: Inhibition of recombinant human LMW-PTP isoform 1 expressed in Escherichia coli TB1.

The species entered for data set [4] is Homo sapiens. The data set can be described thus: Selectivity ratio of IC50 for recombinant human LMW-PTP isoform 1expressed in Escherichia coli TB1 to IC50 for recombinant human PTP-1B expressed in Escherichia coli TB1.
In data set [5] the target is T1, Tyrosine-protein phosphatase non-receptor type 1 (Homo sapiens). The data set can be described thus: Partial reversible inhibition of recombinant human PTP-1B expressed in Escherichia coli TB1 at 10 times IC50 using p-nitrophenyl phosphate as substrate preincubated for 90 mins followed by 400 fold dilution.
Data set [6] concerns the target T2, Low molecular weight phosphotyrosine protein phosphatase. The data set can be described thus: Inhibition of recombinant human LMW-PTP isoform 2 expressed in Escherichia coli TB1.
Data set [7] has as its target T3, Tyrosine-protein phosphatase non-receptor type 2 (Homo sapiens, UniProt P17706).
T3 sequence (P17706 whole entry): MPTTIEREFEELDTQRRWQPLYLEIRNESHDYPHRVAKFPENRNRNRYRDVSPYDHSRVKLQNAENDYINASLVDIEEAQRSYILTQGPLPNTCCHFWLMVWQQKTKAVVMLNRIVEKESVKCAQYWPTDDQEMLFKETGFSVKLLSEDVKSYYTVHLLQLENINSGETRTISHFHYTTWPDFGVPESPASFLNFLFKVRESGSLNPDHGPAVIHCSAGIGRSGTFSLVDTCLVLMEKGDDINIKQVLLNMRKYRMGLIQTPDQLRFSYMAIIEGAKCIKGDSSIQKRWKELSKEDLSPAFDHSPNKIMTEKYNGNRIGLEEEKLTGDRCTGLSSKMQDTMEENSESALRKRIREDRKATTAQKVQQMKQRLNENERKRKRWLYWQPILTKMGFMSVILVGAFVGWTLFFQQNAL
The data set can be described thus: Inhibition of recombinant human TC-PTP expressed in Escherichia coli TB1.

Data set [8] addresses T4, Tyrosine-protein phosphatase non-receptor type 1 (Homo sapiens, UniProt P18031).
T4 sequence (P18031 whole entry): T1 sequence (whole entry)
The data set can be described thus: Inhibition of recombinant human PTP-1B expressed in Escherichia coli TB1 using p-nitrophenyl phosphate as substrate.

The nature of data set [9]: Solubility of compound in DMSO. The format is physicochemical.
Data set [10] deals with Rattus norvegicus. Kind of data set: Antidiabetic activity in non insulin dependent streptozotocin/nicotinamide-induced diabetic Wistar rat model assessed as decrease in blood glucose levels at 50 mg/kg, ig administered as single dose measured after 7 hrs by glucometer. Format: functional. Set-up: scale not given: the % may be the effect or the level left.
For data set [11], the target named is T4, Tyrosine-protein phosphatase non-receptor type 1. Kind of data set: Competitive inhibition of recombinant human PTP-1B expressed in Escherichia coli TB1 using p-nitrophenyl phosphate as substrate by Lineweaver-Burk plot analysis.
The subject of data set [12] is Rattus norvegicus. Kind of data set: Antidiabetic activity in non insulin dependent streptozotocin/nicotinamide-induced diabetic Wistar rat model assessed as decrease in blood glucose levels at 50 mg/kg, ig administered as single dose measured after 3 hrs by glucometer. The format is functional, organism-based.
The target in data set [13] is T1, Tyrosine-protein phosphatase non-receptor type 1 (Homo sapiens). Kind of data set: Reversible inhibition of recombinant human PTP-1B expressed in Escherichia coli TB1 at 10 times IC50 using p-nitrophenyl phosphate as substrate preincubated for 90 mins followed by 400 fold dilution.

The inhibition is the percentage by which the read-out fell short of the control. As a reminder, the IC50 is the concentration needed to halve the response being measured. In general, Ki refers to a dissociation constant, usually derived from enzyme kinetics or from competition with a known ligand.

Regarding `CC1(C)C=C2[C@H]3CC[C@@H]4[C@@]5(C)CCC(=O)C(C)(C)[C@@H]5CC[C@@]4(C)[C@]3(C)CC[C@@]2(C(=O)NC2CCCCC2)CC1`, in data set [1], the inhibition entry is “Active”.

Turning to `CC1(C)CC[C@]2(O)CC[C@]3(C)[C@H](CC[C@@H]4[C@@]5(C)CCC(=O)OC(C)(C)[C@@H]5CC[C@]43C)C23OC13` (stereo partly specified), the inhibition result in data set [1] is “Active”.

With `CC1(C)C=C2[C@H]3CC[C@@H]4[C@@]5(C)CCC6(OCCO6)C(C)(C)[C@@H]5CC[C@@]4(C)[C@]3(C)CC[C@@]2(CO)CC1`, the Ratio IC50 was 4 in the data set listed under Homo sapiens [2] and 2 in the data set listed under Homo sapiens [4]. Also, in [1], the inhibition is 100%. The IC50 in data set [3] is 16.1 µM; in data set [6], 29.3 µM; in [7], greater than 100 µM; in data set [8], 7.5 µM. In [5], the inhibition entry is “Active”. Further, in data set [9], the solubility result was “soluble”.

Turning to `CCOC(=O)[C@]12CCC(C)(C)C=C1[C@H]1CC[C@@H]3[C@@]4(C)CCC(=O)C(C)(C)[C@@H]4CC[C@@]3(C)[C@]1(C)CC2`, in data set [1], the inhibition entry was “Active”.

For `COC(=O)[C@]12CCC(C)(C)C=C1[C@H]1CC[C@@H]3[C@@]4(C)CCC(=O)C(C)(C)[C@@H]4CC[C@@]3(C)[C@]1(C)CC2`, in data set [1], the inhibition is 100%. Also, the Activity with Rattus norvegicus [10] was 40%. Also, the Ki in data set [11] was 3.1 µM. In the data set on Rattus norvegicus [12], the outcome was Active. The IC50 in data set [3] was 33.7 µM; in [6], 62.5 µM; in [7] it was greater than 100 µM; in data set [8] it was 10.8 µM. For the same compound, the inhibition result in data set [13] was “Active”.
